What was measured:
[1] = molecular target: T1, Cytochrome P450 11B1, mitochondrial (Homo sapiens, UniProt P15538); test: Inhibition of human CYP11B1 expressed in hamster V79MZ cells using 11-deoxycorticosterone substrate; assay type: cell-based
T1 sequence (P15538 whole entry): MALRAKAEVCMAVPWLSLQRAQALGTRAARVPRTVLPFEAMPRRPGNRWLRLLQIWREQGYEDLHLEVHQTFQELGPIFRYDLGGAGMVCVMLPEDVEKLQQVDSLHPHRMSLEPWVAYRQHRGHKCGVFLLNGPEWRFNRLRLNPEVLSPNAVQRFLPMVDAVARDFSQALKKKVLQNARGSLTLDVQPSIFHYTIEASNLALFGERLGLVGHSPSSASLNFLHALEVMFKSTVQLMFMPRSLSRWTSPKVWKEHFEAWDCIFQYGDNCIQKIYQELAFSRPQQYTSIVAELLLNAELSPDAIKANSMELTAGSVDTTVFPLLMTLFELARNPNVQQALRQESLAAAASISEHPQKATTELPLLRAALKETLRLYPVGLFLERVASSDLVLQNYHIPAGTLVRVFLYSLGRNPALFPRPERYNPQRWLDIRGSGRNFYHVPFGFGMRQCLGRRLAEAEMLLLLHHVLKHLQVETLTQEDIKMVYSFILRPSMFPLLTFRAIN

[2] = molecular target: T2, Cytochrome P450 11B2, mitochondrial (Homo sapiens, UniProt P19099); test: Inhibition of human CYP11B2 expressed in hamster V79MZ cells using 11-deoxycorticosterone substrate; assay type: cell-based
T2 sequence (P19099 whole entry): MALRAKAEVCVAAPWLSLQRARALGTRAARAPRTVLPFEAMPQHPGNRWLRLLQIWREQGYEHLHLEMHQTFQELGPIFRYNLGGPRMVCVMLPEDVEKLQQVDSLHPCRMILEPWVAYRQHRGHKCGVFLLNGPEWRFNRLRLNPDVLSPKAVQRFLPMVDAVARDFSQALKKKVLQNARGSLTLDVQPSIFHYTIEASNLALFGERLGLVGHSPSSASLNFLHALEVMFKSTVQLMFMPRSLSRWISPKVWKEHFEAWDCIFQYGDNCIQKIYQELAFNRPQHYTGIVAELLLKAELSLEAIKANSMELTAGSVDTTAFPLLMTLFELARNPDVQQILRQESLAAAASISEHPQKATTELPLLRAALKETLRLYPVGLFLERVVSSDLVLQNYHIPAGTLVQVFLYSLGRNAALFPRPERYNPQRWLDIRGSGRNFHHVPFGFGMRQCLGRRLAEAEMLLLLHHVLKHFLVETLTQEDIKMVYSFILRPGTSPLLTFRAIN

Homo sapiens = species: Homo sapiens; test: Selectivity index, ratio of IC50 for human CYP11B2 to IC50 for human CYP11B1
[3] = molecular target: T3, Steroid 17-alpha-hydroxylase/17,20 lyase (Homo sapiens, UniProt P05093); test: (§1) Inhibition of human recombinant CYP17 expressed in Escherichia coli at 2 uM using progesterone substrate; conditions: 2 µM
T3 sequence (P05093 whole entry): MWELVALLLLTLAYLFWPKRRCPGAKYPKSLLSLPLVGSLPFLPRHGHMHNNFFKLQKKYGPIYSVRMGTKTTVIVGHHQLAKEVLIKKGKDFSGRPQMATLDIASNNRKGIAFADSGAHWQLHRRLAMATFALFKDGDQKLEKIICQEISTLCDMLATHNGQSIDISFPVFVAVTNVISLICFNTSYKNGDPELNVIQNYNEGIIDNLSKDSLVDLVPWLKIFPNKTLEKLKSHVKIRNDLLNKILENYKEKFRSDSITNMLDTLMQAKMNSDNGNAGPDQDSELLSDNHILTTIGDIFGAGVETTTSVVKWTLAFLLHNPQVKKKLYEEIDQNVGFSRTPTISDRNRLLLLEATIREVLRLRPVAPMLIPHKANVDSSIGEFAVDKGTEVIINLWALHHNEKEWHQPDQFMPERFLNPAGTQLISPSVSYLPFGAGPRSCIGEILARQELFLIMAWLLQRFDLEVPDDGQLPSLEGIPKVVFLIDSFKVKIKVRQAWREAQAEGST

CYP19 (aromatase) = molecular target: T4, CYP19 (aromatase) (Homo sapiens, UniProt P11511); test: (§2) Inhibition of human placental microsomes CYP19 at 500 nM using androstenedione substrate; conditions: human placental microsomes, probe androstenedione
T4 sequence (P11511 whole entry): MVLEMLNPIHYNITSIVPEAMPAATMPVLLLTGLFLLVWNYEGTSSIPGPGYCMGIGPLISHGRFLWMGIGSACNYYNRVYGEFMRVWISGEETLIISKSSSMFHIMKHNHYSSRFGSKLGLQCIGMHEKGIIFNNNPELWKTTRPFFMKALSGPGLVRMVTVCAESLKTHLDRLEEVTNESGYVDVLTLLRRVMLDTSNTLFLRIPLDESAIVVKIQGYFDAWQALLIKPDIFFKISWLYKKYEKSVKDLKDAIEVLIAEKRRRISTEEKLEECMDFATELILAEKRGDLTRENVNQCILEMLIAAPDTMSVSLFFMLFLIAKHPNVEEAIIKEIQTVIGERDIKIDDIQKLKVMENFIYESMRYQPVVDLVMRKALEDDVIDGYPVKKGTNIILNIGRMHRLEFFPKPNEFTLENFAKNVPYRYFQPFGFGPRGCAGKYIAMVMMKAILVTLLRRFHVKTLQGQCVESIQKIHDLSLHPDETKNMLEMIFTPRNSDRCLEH

Aromatase = molecular target: T5, Aromatase (Homo sapiens, UniProt P11511); test: as §2; conditions: 0.5 µM
T5 sequence (P11511 whole entry): T4 sequence (P11511 whole entry)

CYP17 = molecular target: T6, CYP17 (Homo sapiens, UniProt P05093); test: as §1; conditions: recombinant human CYP17 expressed in Escherichia coli, probe progesterone
T6 sequence (P05093 whole entry): T3 sequence (P05093 whole entry)

SMILES	IC50 [1]	IC50 [2]	Ratio IC50 (Homo sapiens)	inhibition (INH) [3]	inhibition at 0.5 µM (CYP19 (aromatase))	inhibition (INH) (Aromatase)	inhibition at 2 µM (CYP17)
c1ccc(C(c2ccccc2)(c2ccccc2)n2ccnc2)cc1	3 nM	11 nM	3.4	Not Active	38%		
c1ccc(C(CCn2cnc3ccccc32)(c2ccccc2)c2ccccc2)cc1	> 1000 nM	> 1000 nM		Not Active		Not Active	
c1ccc(C(Cn2ccnc2)(c2ccccc2)c2ccccc2)cc1	4 nM	8 nM	2	Not Active	38%		
c1ccc(-c2ccc(Cn3ccnc3)s2)cc1	43 nM	353 nM	8.2		12%		21%
CC(C)(C(=O)c1cccnc1)c1cccnc1 [METYRAPONE]				Not Active		Not Active	
Clc1ccc(Cn2cnc3ccccc32)cc1	635 nM	107 nM	0.2	Not Active		Not Active	
Cc1ccc(Cn2cnc3ccccc32)cc1	500 nM	520 nM	1	Not Active		Not Active	
Cc1cccc(Cn2cnc3ccccc32)c1	194 nM	309 nM	1.6	Not Active		Not Active	
Clc1ccc(Cn2ccnc2)cc1	140 nM	46 nM	0.3	Not Active		Not Active	
c1ccc(C(c2ccccc2)(c2ccccc2)n2cnc3ccccc32)cc1	> 1000 nM	> 1000 nM		Not Active		Not Active	
c1ccc(-c2csc(Cn3ccnc3)c2)cc1	19 nM	277 nM	15		72%		
c1ccc(C(CCn2ccnc2)(c2ccccc2)c2ccccc2)cc1	80 nM	290 nM	3.6	Not Active	38%		
c1ccc(-c2cccc(Cn3ccnc3)c2)cc1	46 nM	265 nM	5.8	Not Active	38%		
c1ccc(-c2cc(Cn3cnc4ccccc43)cc(-c3ccccc3)c2)cc1	> 1000 nM	> 1000 nM		Not Active		Not Active	
c1ccc(Cn2ccnc2)cc1	135 nM	456 nM	3.4	Not Active		Not Active	
c1cn(CC23CC4CC(CC(C4)C2)C3)cn1	5 nM	30 nM	5.9		12%		
Cc1cc(C)cc(Cn2cnc3ccccc32)c1	188 nM	632 nM	3.4	Not Active		Not Active	
Cc1cccc(Cn2ccnc2)c1	48 nM	110 nM	2.3	Not Active	12%		

SMILES	IC50 [1]	IC50 [2]	Ratio IC50 (Homo sapiens)	inhibition (INH) [3]	inhibition at 0.5 µM (CYP19 (aromatase))	inhibition (INH) (Aromatase)	inhibition at 2 µM (CYP17)
c1ccc(-c2ccc(Cn3ccnc3)cn2)cc1			18		0%		
Cc1c(C)c(C)c(Cn2cnc3ccccc32)c(C)c1C	> 1000 nM	> 1000 nM		Not Active		Not Active	
c1ccc2c(c1)ncn2CC12CC3CC(CC(C3)C1)C2	75 nM			Not Active	12%		
CCOC(=O)c1cncn1[C@H](C)c1ccccc1 [ETOMIDATE]		0.1 nM	0.5	Not Active		Not Active	
c1ccc(-c2cccc(Cn3cnc4ccccc43)c2)cc1	369 nM	2230 nM	6	Not Active		Not Active	
c1ccc(C(Cn2cnc3ccccc32)(c2ccccc2)c2ccccc2)cc1	> 1000 nM	> 1000 nM		Not Active		Not Active	
Cc1c(C)c(C)c(Cn2ccnc2)c(C)c1C	5 nM	23 nM	4.6	Not Active	12%		
Cc1cc(C)cc(Cn2ccnc2)c1	32 nM	77 nM	2.4	Not Active	38%		
Cc1ccccc1Cn1cnc2ccccc21	779 nM	262 nM	0.3	Not Active		Not Active	
Cc1cc(C)c(Cn2ccnc2)c(C)c1	24 nM	30 nM	1.3	Not Active		Not Active	
Cc1ccc(Cn2ccnc2)cc1	258 nM	320 nM	1.2	Not Active		Not Active	
c1ccc(-c2ccc(Cn3ccnc3)cc2)cc1	32 nM	637 nM	20		5%		40%
Cc1ccccc1Cn1ccnc1	61 nM	62 nM	1	Not Active	12%		
c1ccc(-c2ccccc2Cn2cnc3ccccc32)cc1	> 1000 nM	> 1000 nM		Not Active		Not Active	
c1ccc(Cn2cnc3ccccc32)cc1	246 nM	865 nM	3.5	Not Active		Not Active	
c1ccc(-c2ccccc2Cn2ccnc2)cc1	15 nM	39 nM	2.6	Not Active	38%		
Cc1cc(C)c(Cn2cnc3ccccc32)c(C)c1	> 1000 nM	> 1000 nM		Not Active		Not Active	
c1ccc(-c2ccc(Cn3cnc4ccccc43)cc2)cc1	197 nM	1900 nM	10	Not Active		Not Active	
